The source of these data is PubChem BioAssay (NCI).

Test systems include EKVX NSCLC; SK-OV-3 ovarian; SK-MEL-5 melanoma; A498 renal; ACHN renal; HT29 colon; HCT-15 colon; HL-60(TB) leukemia; MDA-MB-435; HS 578T breast.
Holding throughout (assay): NCI-60 cell line screen, 48 h

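Exposure lasted 48 hours, with cells grown in 96-well plates and compounds tested at five concentrations. GI50 is the concentration that inhibits growth by half. TGI: total growth inhibition.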

For the molecule `C[P+]1(c2ccccc2)CCCCC1`, the TGI in the assay on EKVX NSCLC, with SK-OV-3 ovarian, in the assay on SK-MEL-5 melanoma, in the assay with A498 renal, in the assay with ACHN renal and with HT29 colon was more than 100 µM throughout. In the assay with HCT-15 colon, this molecule displayed a TGI of more than 100 µM.
On to `CC(=O)CC(=O)CCC(=O)Nc1cccc(C(F)(F)F)c1`, for which the TGI in the assay on EKVX NSCLC, with SK-OV-3 ovarian, in the assay with SK-MEL-5 melanoma, in the assay on A498 renal, in the assay on ACHN renal and with HL-60(TB) leukemia was more than 100 µM throughout. Further, the TGI in the assay on HT29 colon and with HCT-15 colon was more than 100 µM each time.
In the case of `C=C1C=CC2(Br)OC3CC(C)(Cl)C(Br)CC13C2(C)C` (stereo unspecified), the TGI in the assay on EKVX NSCLC is 61.9 µM; in the assay on SK-OV-3 ovarian, more than 100 µM; with SK-MEL-5 melanoma, 31 µM; with A498 renal, 46.5 µM; with ACHN renal, 56.2 µM; in the assay on HL-60(TB) leukemia, 33.9 µM. For the same molecule, the figures for the TGI in the assay with HT29 colon and in the assay on HCT-15 colon were 36.5 µM and 51.3 µM, respectively.
For the molecule `O=C(Cc1ccccc1)C(c1ccccc1)S(=O)(=O)c1ccccc1` (stereo unspecified), the TGI in the assay on EKVX NSCLC, in the assay on SK-OV-3 ovarian, with SK-MEL-5 melanoma, in the assay on A498 renal, in the assay on ACHN renal and in the assay on HL-60(TB) leukemia was more than 100 µM throughout. Also, the TGI in the assay with HT29 colon and with HCT-15 colon was more than 100 µM each time.
As to `Cc1ccc(C2=Nc3ccccc3SC(c3cccc4c3OCO4)C2)cc1` (stereo unspecified), the TGI with EKVX NSCLC amounted to 38.7 µM; in the assay on SK-OV-3 ovarian, 76.3 µM; in the assay on SK-MEL-5 melanoma it was 31.1 µM; in the assay with A498 renal, 43.6 µM; with ACHN renal, 53.8 µM; in the assay with HL-60(TB) leukemia it was 39 µM. The TGI in the assay on HT29 colon worked out at 33.2 µM; in the assay with HCT-15 colon, 54.1 µM.
`c1ccc2c(CNCCN3CCNCC3)c3ccccc3c(CNCCN3CCNCC3)c2c1`: the GI50 with MDA-MB-435 is 11.7 µM; with EKVX NSCLC, 19.3 µM; in the assay with SK-OV-3 ovarian, 24.5 µM; with SK-MEL-5 melanoma, 15.6 µM; with A498 renal, 18.3 µM; in the assay on ACHN renal, 31.2 µM. Also, the GI50 is 29.2 µM in the assay with HT29 colon and more than 100 µM in the assay with HCT-15 colon. Moreover, the TGI in the assay on MDA-MB-435 is 27.2 µM; with EKVX NSCLC it was 61.3 µM; in the assay on SK-OV-3 ovarian, 79.8 µM; in the assay with SK-MEL-5 melanoma it was 35.2 µM; with A498 renal it was 60.7 µM; in the assay on ACHN renal, more than 100 µM. In addition, the TGI in the assay on HT29 colon and with HCT-15 colon was more than 100 µM each time.
On to `Cc1cc2c(c(=O)o1)C1=S(SC(c3ccccc3)=C1)S2` (stereo unspecified), for which the TGI in the assay on SK-OV-3 ovarian is 52.6 µM; with SK-MEL-5 melanoma it was more than 100 µM; with HS 578T breast it was 96 µM; in the assay with A498 renal it was 34 µM; in the assay on ACHN renal it was more than 100 µM; in the assay on HT29 colon, more than 100 µM. Moreover, the TGI with HCT-15 colon was more than 100 µM.
Regarding `O=C(CO)C1CC2C=CC1C2` (stereo unspecified), the TGI with EKVX NSCLC, with SK-OV-3 ovarian, in the assay on SK-MEL-5 melanoma, with A498 renal, with ACHN renal and in the assay on HL-60(TB) leukemia was more than 100 µM throughout. Besides, the TGI in the assay with HT29 colon and in the assay on HCT-15 colon was more than 100 µM each time.
On to `N#CNC1=NC(N)C(c2nc3ccccc3[nH]2)=C(CCCC(=O)Nc2cccc([N+](=O)[O-])c2)N1` (stereo unspecified), for which the TGI in the assay with EKVX NSCLC, in the assay with SK-OV-3 ovarian, in the assay on SK-MEL-5 melanoma, in the assay on ACHN renal, in the assay on HL-60(TB) leukemia and with HT29 colon was more than 100 µM each time. For the same molecule, in the assay with HCT-15 colon, the TGI was more than 100 µM.
Take `Cc1ccc(NC(=O)/C(C#N)=C/c2ccccc2)c(C)c1`: the TGI with EKVX NSCLC, in the assay on SK-OV-3 ovarian, with SK-MEL-5 melanoma, in the assay on A498 renal, with ACHN renal and in the assay with HL-60(TB) leukemia was more than 100 µM in each case. The TGI in the assay on HT29 colon and in the assay with HCT-15 colon was more than 100 µM throughout.
`CCOC(=O)C(CCCNC(=O)OC(C)(C)C)N(Cc1ccc(OC)cc1OC)C(=O)CC(=O)CP(=O)(OCC)OCC` (stereo unspecified): the TGI in the assay on EKVX NSCLC, in the assay with SK-OV-3 ovarian, in the assay with SK-MEL-5 melanoma, in the assay with A498 renal, in the assay on ACHN renal and in the assay with HL-60(TB) leukemia was more than 100 µM each time. This molecule also registered a TGI in the assay on HT29 colon of more than 100 µM.
With `c1ccc(-c2csc3ncn4cnnc4c23)cc1`, the TGI in the assay on EKVX NSCLC, in the assay on SK-OV-3 ovarian, with SK-MEL-5 melanoma, with ACHN renal, in the assay on HL-60(TB) leukemia and in the assay on HT29 colon was more than 100 µM each time. In addition, the TGI with HCT-15 colon is more than 100 µM.
With `CC1CCC2C(CN(CC3=C(C(F)(F)F)OC4OC5(C)CCC6C(C)CCC3C46OO5)CC3=C(C(F)(F)F)OC4OC5(C)CCC6C(C)CCC3C46OO5)=C(C(F)(F)F)OC3OC4(C)CCC1C32OO4` (stereo unspecified), the GI50 in the assay on MDA-MB-435 is 4.54 µM; in the assay with EKVX NSCLC it was 19.5 µM; in the assay with SK-OV-3 ovarian, 35.2 µM; in the assay on HS 578T breast it was 17.9 µM; with ACHN renal, 1.81 µM; with HL-60(TB) leukemia, 3.12 µM. Besides, the results for the GI50 in the assay on HT29 colon and with HCT-15 colon were 25.1 µM and 10 µM, respectively. Moreover, the TGI in the assay on MDA-MB-435 is 17.3 µM; in the assay on EKVX NSCLC, 49.2 µM; in the assay on SK-OV-3 ovarian, more than 100 µM; in the assay on HS 578T breast it was 61.4 µM; with ACHN renal, 3.49 µM; with HL-60(TB) leukemia, 10.7 µM. In addition, the TGI with HT29 colon is more than 100 µM; in the assay on HCT-15 colon it was 25.7 µM.
In the case of `COc1cc(/C=C/C(=O)O[C@H]2[C@H](O[C@@H]3O[C@@H](C)[C@H](O)[C@@H](O)[C@H]3O)[C@@H](O)[C@H](OCCc3ccc(O)c(O)c3)O[C@@H]2COC2OCC(O)(CO)C2O)ccc1O` (stereo partly specified), the GI50 in the assay on MDA-MB-435 was 17.3 µM; in the assay on EKVX NSCLC, more than 100 µM; in the assay on SK-OV-3 ovarian, more than 100 µM; with SK-MEL-5 melanoma, more than 100 µM; in the assay on HS 578T breast, 67.6 µM; in the assay with ACHN renal, more than 100 µM. Besides, the GI50 with HL-60(TB) leukemia and in the assay on HCT-15 colon was more than 100 µM in each case. Moreover, the TGI in the assay with MDA-MB-435 is 35.2 µM; with EKVX NSCLC, more than 100 µM; with SK-OV-3 ovarian, more than 100 µM; in the assay with SK-MEL-5 melanoma it was more than 100 µM; with HS 578T breast it was more than 100 µM; with ACHN renal, more than 100 µM. The TGI in the assay on HL-60(TB) leukemia and with HCT-15 colon was more than 100 µM in each case.
